Source: patent publication US20260232554A1, “ORAL CARE AGENT WITH DIMETHYLGLYCINE” (Dr. Kurt Wolff GmbH & Co. KG, priority 2023, published 2026)

Columns and labels:
Format in all cases: cell-based, human
VEGF = VEGF gene expression by qRT-PCR; settings: HaCaT; after 24 h of cultivation; versus control without DMG
Description: VEGF (vascular endothelial growth factor) promotes the growth and formation of new blood and lymph vessels. Gene expression was measured using a standard method known as quantitative real-time PCR (qRT-PCR).
Human epidermal keratinocyte cells (HaCaT) were seeded in a 6-well plate at a cell density of 140,000 cells/well and cultured in medium (DMEM with 10% FBS, 1% penicillin-streptomycin, 0.5% fungizone) at 37° C. and 5 vol % CO2. On the next day, the cell culture medium without (control) or with the respective concentrations of active substance already contained was changed and the cells were harvested after 24 hours. Gene expression was measured using qRT-PCR based on previously published studies in B. V. Diaz, M.-C. Lenoir, A. Ladoux, C. Frelin, M. Demarchez, S. Michel, Journal of Biological Chemistry 2000, 275, 642-650.

HaCaT cells [1] = assay: CyQUANT assay, cell proliferation; settings: after 48 h and 72 h of cultivation, versus control without DMG
Description: (§1) As part of an in vitro study, the effect of sodium dimethylglycinate was investigated in a cell culture model with human keratin-forming keratinocyte cells. For this purpose, HaCaT cells were cultured for 1, 3, 5 and 7 days in DMEM medium (including fetal calf serum and an antibiotic-antimycotic mix) and the viability, proliferation and migration of the cells were determined using suitable measurement methods and the expression of growth factors relevant for cell growth was determined.
A so-called CyQUANT assay was used to measure proliferation. In this fluorescence-based assay, the fluorescent dye used binds to DNA (deoxyribonucleic acid), whereby the content of cellular DNA is a direct measure of the number of cells within a sample.
(§2) Human epidermal keratinocyte cells (HaCaT) were seeded in a 96-well plate at a cell density of 5,000 cells/well and cultured in medium (DMEM with 10% FBS, 1% penicillin-streptomycin, 0.5% fungizone). On the next day and after a further 24 h, 48 h and 72 h of cultivation at 37° C. and 5 vol. % CO2, the cell culture medium without (control) or with the respective concentrations of active substance already contained was changed. […]

HaCaT cells [2] = assay: wound healing assay, migration; settings: images after 16 h, 20 h and 24 h, different DMG concentrations, versus control without DMG
Description: as §1
A so-called wound healing assay was used to measure migration, based on previously published studies in T. Kawabata, T. Otsuka, K. Fujita, G. Sakai, R. Matsushima-Nishiwaki, O. Kozawa, H. Tokuda, International journal of molecular medicine 2018, 42, 3149-3156. The principle is based on measuring the migration of cells to a not yet colonized cultivation surface over time. For this purpose, 20,000 cells each were seeded into two adjacent wells or cavities separated by a silicone insert (with standardized width) and cultivated in medium (DMEM with 5% FBS, 1% penicillin-streptomycin, 0.5% fungizone) for 48 h at 37° C. and 5 vol % CO2. The plastic insert was then removed (“creation of the wound”) and the migration of the cells was documented by determining the cultivation surface not colonized with cells over time using images. […]

Interleukin-6 (IL-6) = assay: IL-6 gene expression by qRT-PCR after cytokine-induced inflammation; settings: HaCaT; 25 ng/ml TNFα and 25 ng/ml IFNγ; DMG 0.005%-0.00005%; 24 h; versus positive control of inflammation induction
Description: Interleukin-6 (IL-6) is a peptide hormone of the immune system from the group of pro-inflammatory interleukins and plays a key role in the non-specific, innate immune response. Gene expression was measured using a standard method known as quantitative real-time PCR (qRT-PCR).
Human epidermal keratinocyte cells (HaCaT) were seeded in a 6-well plate at a cell density of 140,000 cells/well and cultured in medium (DMEM with 10% FBS, 1% penicillin-streptomycin, 0.5% fungizone) at 37° C. and 5 vol % CO2. On the next day, cytokine treatment (25 ng/ml tumor necrosis factor-alpha (TNFα) and 25 ng/ml interferon-gamma (IFNγ)) was used to induce cell inflammation. […] with the different DMG drug concentrations (inflammation induction+DMG 0.005%−0.00005%) or without DMG (positive control of inflammation induction). In parallel, cells were treated without any treatment (control) or only with the different DMG drug concentrations (DMG 0.005%−0.00005%) and the cells were harvested after 24 h for gene expression analysis. Gene expression was measured using qRT-PCR based on previously published studies in B. V. Diaz, M.-C. Lenoir, A. Ladoux, C. Frelin, M. Démarchez, S. Michel, Journal of Biological Chemistry 2000, 275, 642-650.

HaCaT cells [3] = assay: MTT assay, cell viability; settings: after 48 h and 72 h of cultivation, versus control without DMG
Description: as §1
For this measurement, a so-called MTT assay was used to determine cellular metabolic activity as an indicator of cell viability and cytotoxicity. This colorimetric assay is based on the reduction of a yellow tetrazolium salt (3-(4,5-dimethylthiazol-2-yl)-2,5-diphenyltetrazolium bromide or MTT) to purple formazan crystals by metabolically active cells.
as §2, with “sodium dimethylglycinate (DMG)” for “active substance”

With `CN(C)CC(=O)[O-].[Na+]` [DMG, sodium dimethylglycinate] as the molecule, how does the “relative gene expression of VEGF (normalized to GAPDH)” value (VEGF) read?
The value was “significant increase”.

What about the “cell proliferation (CyQUANT, fluorescence normalized to control at 24 h)” value (HaCaT cells [1]) of the same molecule?
Its value is “clear increase”.

And the “migration or wound closure” value (HaCaT cells [2])?
The value was “significantly faster”.

What about the “expression of interleukin-6 induced by cytokine treatment” value (Interleukin-6 (IL-6)) of the same molecule?
Its value is “dose-dependently reduced”.

What about the “cell viability (MTT, absorption normalized to control at 24 h)” value (HaCaT cells [3]) of the same molecule?
Its value is “clear increase”.
